From patent publication US20100184807A1, “Methods to inhibit tumor cell growth by using proton pump inhibitors” (Bio-Quant, Inc., priority 2008, published 2010)

Legend:
Type in all cases: cell-based
[1] = tested on: HL60 (leukemia); test: MTT tumor cell growth assay; conditions: HL60 cells, lansoprazole 1-100 μM, 48 hours
Description: (§1) In one study, adherent cells were plated approximately 16-24 hours before the day of the experiment in 180 μl growth media. On the day of the experiment, the plated adherent cells were analyzed and counted and suspension cells were plated in 180 μl growth media. 10× lansoprazole compounds and vehicle was prepared. The 10× lansoprazole compounds were prepared by diluting lansoprazole to final concentrations of 100 μM, 30 μM, 10 μM, 3 μM, and 1 μM. A vehicle was prepared by preparing a solution of PBS, equivalent to the volume used for 10 μM lansoprazole wherein the 1× solution constitutes ˜0.06% PBS. 10 μl of the various 10× lansoprazole solutions and the vehicle were added to the cells. The cells were incubated at 37° C., 5% CO2 for 48 hours. The media was then aspirated. The cell suspension was then spun at 1500 RPM for 10 minutes. The media was slowly removed. 200 μl of MTT solution was added to each well with a concentration of 0.863 mg/ml MTT in the growth media. The cells were incubated at 37° C., 5% CO2 for 4 hours and the medium is then aspirated. The plate containing the cell suspension was then spun at 1500 RPM for 10 minutes. The media was slowly removed using a multichannel pipettor. 100 μl of DMSO was then added to each well. The cells were incubated at 37° C., 5% CO2 for 5 minutes and the absorbance was obtained at 560 nm using a Dynex Opsys MR plate reader. The cells used for this procedure were the following cell lines: IGROV1 (ovarian cancer); OVCAR 8 (ovarian cancer); ES-2 (ovarian cancer); CAOV3 (ovarian cancer); OVCAR5 (ovarian cancer); SUDHL4 (lymphoma); RPMI8226 (myeloma); RPMI6666 (Hodgkin's lymphoma); NC37 (lymphoma); GDM-1 (leukemia); MC/CAR (prostate cancer); DU-145 (prostate cancer), J45-01 (leukemia), MOLT3 (leukemia), HUT78, J-gamma-1 (leukemia), MCF7 […], COL0205 (colon cancer), HL60 CLONE 15 (leukemia), T47D (breast cancer), P116 (intestinal cancer), KU812 (leukemia), SW620 (colon cancer), MK92-M1 (lymphoma), MV-4-11 (leukemia), HS578T (breast cancer), HT29 (colon cancer), HCT 116 (colon cancer), CAKI-1 (kidney cancer), A549 (lung cancer), H460 (lung cancer), A3 (colon cancer), MDA-MB231 […], MALME 3M (melanoma), RXF393 (kidney cancer), RS4.11 (leukemia), PC3 (prostate cancer), OVCAR3 (ovarian cancer), MDA-MB435 (melanoma), HUT102 (lymphoma), HL60 (leukemia), CCRF-CEM (leukemia), HUT78 (lymphoma), 786-O (kidney cancer), ACHN (kidney cancer), A498 (kidney cancer), H226 (lung cancer), H522 (lung cancer), HOP92 (lung cancer), SNB 19 (brain cancer), OVCAR4 (ovarian cancer), H9 (lymphoma), UO-31 (kidney cancer), HH (lymphoma), DAUDI (leukemia), LOXIMVI (melanoma), NAMALWA (lymphoma), EKVX (lung cancer), DOHH2 (lymphoma), SNB75 (brain cancer), SKMEL28 (melanoma), SKMEL5 (melanoma), SKMEL2 (melanoma), M14 (melanoma), UACC 257 (melanoma), H332M (lung cancer), KM12 (colon cancer), HCC2998 (colon cancer), G401 (kidney cancer), RS1184 (lymphoma), MC116 (leukemia), MOLT4 (leukemia), JM1 (liver cancer), HOP-62 (lung cancer), HCT-15 (colon cancer), SF-539 (brain cancer), SF295 (brain cancer), ST486 (lymphoma), U251 (brain cancer), and UACC-62 (melanoma).

[2] = tested on: MOLT4 (leukemia); test: MTT tumor cell growth assay; conditions: MOLT4 cells, lansoprazole 1-100 μM, 48 hours
Description: as §1

[3] = tested on: RS4.11 (leukemia); test: MTT tumor cell growth assay; conditions: RS4.11 cells, lansoprazole 1-100 μM, 48 hours
Description: as §1

[4] = tested on: UACC257 (melanoma); test: MTT tumor cell growth assay; conditions: UACC257 cells, lansoprazole 1-100 μM, 48 hours
Description: as §1

[5] = tested on: J45-01 (leukemia); test: MTT tumor cell growth assay; conditions: J45-01 cells, lansoprazole 1-100 μM, 48 hours
Description: as §1

[6] = tested on: SKMEL2 (melanoma); test: MTT tumor cell growth assay; conditions: SKMEL2 cells, lansoprazole 1-100 μM, 48 hours
Description: as §1

[7] = tested on: A498 (kidney cancer); test: MTT tumor cell growth assay; conditions: A498 cells, lansoprazole 1-100 μM, 48 hours
Description: as §1

[8] = tested on: J-gamma-1 (leukemia); test: MTT tumor cell growth assay; conditions: J-gamma-1 cells, lansoprazole 1-100 μM, 48 hours
Description: as §1

[9] = tested on: H522 (lung cancer); test: MTT tumor cell growth assay; conditions: H522 cells, lansoprazole 1-100 μM, 48 hours
Description: as §1

[10] = tested on: MV-4-11 (leukemia); test: MTT tumor cell growth assay; conditions: MV-4-11 cells, lansoprazole 1-100 μM, 48 hours
Description: as §1

[11] = tested on: OVCAR8 (ovarian cancer); test: MTT tumor cell growth assay; conditions: OVCAR8 cells, lansoprazole 1-100 μM, 48 hours
Description: as §1

[12] = tested on: HCC2998 (colon cancer); test: MTT tumor cell growth assay; conditions: HCC2998 cells, lansoprazole 1-100 μM, 48 hours
Description: as §1

[13] = tested on: NAMALWA (lymphoma); test: MTT tumor cell growth assay; conditions: NAMALWA cells, lansoprazole 1-100 μM, 48 hours
Description: as §1

[14] = tested on: HH (lymphoma); test: MTT tumor cell growth assay; conditions: HH cells, lansoprazole 1-100 μM, 48 hours
Description: as §1

[15] = MTT tumor cell growth assay; conditions: MCF7 cells, lansoprazole 1-100 μM, 48 hours
Description: as §1

[16] = tested on: DAUDI (leukemia); test: MTT tumor cell growth assay; conditions: DAUDI cells, lansoprazole 1-100 μM, 48 hours
Description: as §1

Measured: tumor cell growth reduction

Cc1c(OCC(F)(F)F)ccnc1C[S+]([O-])c1nc2ccccc2[nH]1 (stereo not shown) [lansoprazole]
significant tumor cell growth reduction: all assays above
